{"source": "patent US20240382487A1", "about": "“NOVEL COPI/ARF1-LIPOLYSIS PATHWAY INHIBITOR AND COMPOUND FOR ERADICATING CANCER STEM CELLS AND INDUCING DAMP-MEDIATED ANTI-TUMOR IMMUNE RESPONSE” (FUDAN UNIVERSITY, priority 2020, published 2024)", "key": {"[1]": {"system": "colorectal cancer cell line LoVo", "assay": "In vitro cell line screening, LoVo", "assay_type": "cell-based", "excerpt": "(§1) In different tumor cytotoxicity experiments in vitro (FIG. 2-FIG. 7), including colorectal cancer cell lines HT29 and LoVo cells, liver cancer cell Huh7, lung cancer cells H460 and A549, the arf1 inhibitor could all inhibit tumor cell growth (FIG. 2-FIG. 6), and there was a dose-dependent manner (FIG. 7)."}, "[2]": {"system": "liver cancer cell Huh7", "assay": "In vitro cell line screening, Huh7", "assay_type": "cell-based", "excerpt": "as §1"}, "[3]": {"system": "tumor cells", "assay": "Tumor cytotoxicity experiments in vitro (all lines, general statements)", "assay_type": "cell-based", "details": "HT29, LoVo, Huh7, H460, A549; FIG. 2-7", "excerpt": "as §1"}, "[4]": {"system": "Drosophila stem cell tumors", "assay": "Drosophila screen (stem cell / intestinal tumors)", "assay_type": "in vivo", "source_text": "(§5) We tested 10 reported Arf1 inhibitors (Bill et al., 2011; Boal et al., 2010; Feng et al., 2004; Newton et al., 2006; Ohashi et al., 2012; Sáenz et al., 2009; Sorieul et al., 2011; Viaud et al., 2007), including brefeldin A (BFA), Golgicide A (GCA), LM11, Secin16, Secin H3, Secin B7, Exo1, Exo2, LG8, and LG18, on Drosophila stem cell tumors and normal human bone marrow hematopoietic stem cells (HSCs)."}, "[5]": {"system": "CT-26 colon cancer", "assay": "Vaccination model, drug-treated CT-26 cells in BALB/c mice", "assay_type": "in vivo", "set-up": "tumor size, left side with drug treatment / tumors on right side after vaccination on left side: unit not given here", "details": "CT-26, BALB/c mice; for tumor size, left side with drug treatment: cells treated with 10 μM Du 102; for tumors on right side after vaccination on left side: untreated cells re-challenge"}, "[6]": {"system": "B16-F10 melanoma", "assay": "Drug-treated B16-F10 cells in athymic nude mice", "assay_type": "in vivo", "set-up": "unit not given here", "details": "cells treated with 10 μM Du 102", "experimental": "(§2) The immunogenicity of the reagents can be tested in mouse vaccination models (Obeid et al., 2007; Sagiv barfi et al., 2018). One flank of the mouse was injected with drug treated tumor cells, followed one week later by a second injection of syngeneic tumor cells. We tested the vaccine efficacy in CT-26 colon cancer, B16-F10 melanoma, and 4T1 breast cancer treated with DMSO or du102.\n(§3) Cells will be treated with 10 μM Du 102 or DMSO treated CT26, 4T1 and B16-F10 tumor cells (5×10^5\\1×10^5 and 5×10^5, respectively) were subcutaneously inoculated into 6-week-old female mice. After 7 days, equal amounts of corresponding tumor cells were seeded to the right side. Tumor cell lines were mixed with Matrigel (GIBCO, cat s̆ 354234) or resuspended in PBS and injected subcutaneously or intradermally."}, "[7]": {"system": "B16-F10 melanoma", "assay": "Vaccination model, drug-treated B16-F10 cells in C57B/6 mice", "assay_type": "in vivo", "set-up": "unit not given here", "details": "B16-F10, C57B/6 mice; for tumor size, left side with drug treatment: cells treated with 10 μM Du 102"}, "[8]": {"system": "4T1 breast carcinoma", "assay": "Drug-treated 4T1 cells in athymic nude mice", "assay_type": "in vivo", "set-up": "unit not given here", "details": "cells treated with 10 μM Du 102", "experimental": "as §2, §3"}, "[9]": {"system": "4T1 breast carcinoma", "assay": "Vaccination model, drug-treated 4T1 cells in BALB/c mice", "assay_type": "in vivo", "set-up": "unit not given here", "details": "4T1, BALB/c mice; for tumor size, left side with drug treatment: cells treated with 10 μM Du 102"}, "[10]": {"system": "IL-1β", "assay": "IL-1β assay, CD11c+ DCs co-cultured with treated CT26 cells", "assay_type": "cell-based", "details": "CT-26 colon cancer model, BALB/c mice; co-culture 2 days", "experimental": "(§4) For IL-1 β Assay: seven days after CT26 cell lysate injection. CD11c+DCs were isolated from injected BALB/c mice and co cultured with CT26 cells treated with DMSO or du102. After 2 days, […] was measured in harvested cells (Table 11). For the IFN-y assay: CD11c^+ DC and CD8^+ T cells were isolated from injected BALB/c mice 7 days after CT26 cell lysate injection and co cultured with CT26 cells treated with DMSO or du102. After 2 days. IFN-y was measured in harvested cells (table 11)."}, "[11]": {"system": "INFγ", "assay": "IFN-γ assay, CD11c+ DC and CD8+ T cells co-cultured with treated CT26 cells", "assay_type": "cell-based", "details": "CT-26 colon cancer model, BALB/c mice; co-culture 2 days", "experimental": "as §4"}, "[12]": {"system": "T cell activation markers", "assay": "T cell activation markers, 4T1 breast carcinoma in BALB/c mice", "assay_type": "in vivo", "details": "DMSO 1.0", "excerpt": "Example 10. Du 102 Treatment Induces the Expression of T Cell Activation Markers of 4T1 Breast Cancer in BALB/c Mice"}, "[13]": {"system": "MHC expression, CD4 and CD8 T cell infiltration", "assay": "MHC expression and T-cell infiltration in MYC-ON mice", "assay_type": "in vivo", "excerpt": "Du 102 treatment increases MHC expression. CD4 and CD8 T cell infiltration as quantified by Q-PCR in myc-on mice (Table 16).\nMHC-1 or MHC-II positive infiltrating CD4+ and CD8+ T-cells measured by immunohistochemical staining of representative section."}, "[14]": {"system": "B16-F10 melanoma", "assay": "Lung metastasis of B16-F10 melanoma after tail vein injection", "assay_type": "in vivo, C57B/6 mice", "details": "B16-F10 cells treated with 10 μM Du 102, tail vein injection; lungs removed 15 days after injection", "experimental": "B16-f10 tumor cells (treated with DMSO or 10 μM Du 102 treatment) was transferred intravenously via tail vein injection. Lungs were removed 15 days after injection and fixed in fekete's solution overnight. Three investigators in a blinded manner statistically available (Table 17)."}, "[15]": {"system": "normal human bone marrow hematopoietic stem cells (HSCs)", "source_text": "as §5"}}, "note": "Read-outs that look alike come from different tables or passages of the source.", "data": [{"substance": "1H-indolo-5-carbaldehyde 5,6,7,8,9,10-hexahydrocycloocta[4,5]thieno[2,3-d]pyrimidin-4-ylhydrazone [Du 102]", "values": [{"measurement": "tumor suppressive effect", "setting": "[1]", "value": "some tumor suppressive effect"}, {"measurement": "tumor suppressive effect", "setting": "[1]; listed as Dul02", "value": "effective tumor suppressive effects"}, {"measurement": "tumor suppressive effect", "setting": "[2]", "value": "Tumor suppression effect"}, {"measurement": "tumor suppressive effect", "setting": "[2]; listed as Dul02", "value": "effective tumor suppressive effects"}, {"measurement": "tumor suppressive / inhibitory effect on tumor cells", "setting": "[3]", "value": "Some Tumor Suppressive Effect"}, {"measurement": "in vivo tumor suppressive effects", "setting": "[4]; Drosophila screen, FIG. 8", "value": "good in vivo tumor suppressive effects"}, {"measurement": "killing Drosophila stem cell tumors", "setting": "[4]; in vivo", "value": "effective"}, {"measurement": "regression of both left- and right-sided tumours", "setting": "[5]; tables 3 and 4", "value": "almost complete regression"}, {"measurement": "tumor size, left side with drug treatment", "setting": "[5]; Day 0", "value": 0}, {"measurement": "tumors on right side after vaccination on left side", "setting": "[5]; Day 0", "value": 0}, {"measurement": "tumor size, left side with drug treatment", "setting": "[5]; Day 5", "value": 0}, {"measurement": "tumors on right side after vaccination on left side", "setting": "[5]; Day 5", "value": 0}, {"measurement": "tumor size, left side with drug treatment", "setting": "[5]; Day 10", "value": 2}, {"measurement": "tumors on right side after vaccination on left side", "setting": "[5]; Day 10", "value": 0}, {"measurement": "tumor size, left side with drug treatment", "setting": "[5]; Day 15", "value": 8}, {"measurement": "tumor size, left side with drug treatment", "setting": "[5]; Day 20", "value": 57}, {"measurement": "tumors on right side after vaccination on left side", "setting": "[5]; Day 20", "value": 3.7}, {"measurement": "tumor size, left side with drug treatment", "setting": "[5]; Day 25", "value": 81}, {"measurement": "tumors on right side after vaccination on left side", "setting": "[5]; Day 25", "value": 7.6}, {"measurement": "tumor size, left side with drug treatment", "setting": "[5]; Day 30", "value": 178}, {"measurement": "tumors on right side after vaccination on left side", "setting": "[5]; Day 30", "value": 14.1}, {"measurement": "B16-F10 melanoma tumor in Athymic mice", "setting": "[6]; Day 0", "value": 0}, {"measurement": "B16-F10 melanoma tumor in Athymic mice", "setting": "[6]; Day 5", "value": 7.3}, {"measurement": "B16-F10 melanoma tumor in Athymic mice", "setting": "[6]; Day 10", "value": 51.8}, {"measurement": "B16-F10 melanoma tumor in Athymic mice", "setting": "[6]; Day 15", "value": 202.7}, {"measurement": "B16-F10 melanoma tumor in Athymic mice", "setting": "[6]; Day 20", "value": 355.9}, {"measurement": "B16-F10 melanoma tumor in Athymic mice", "setting": "[6]; Day 25", "value": 853.4}, {"measurement": "tumors on right side after vaccination on left side", "setting": "[7]; Day 0", "value": 0}, {"measurement": "tumor size, left side with drug treatment", "setting": "[7]; Day 0", "value": 0}, {"measurement": "tumors on right side after vaccination on left side", "setting": "[7]; Day 5", "value": 0}, {"measurement": "tumor size, left side with drug treatment", "setting": "[7]; Day 5", "value": 0}, {"measurement": "tumors on right side after vaccination on left side", "setting": "[7]; Day 10", "value": 0}, {"measurement": "tumor size, left side with drug treatment", "setting": "[7]; Day 10", "value": 2}, {"measurement": "tumors on right side after vaccination on left side", "setting": "[7]; Day 15", "value": 0.6}, {"measurement": "tumor size, left side with drug treatment", "setting": "[7]; Day 15", "value": 8}, {"measurement": "tumors on right side after vaccination on left side", "setting": "[7]; Day 20", "value": 1.3}, {"measurement": "tumor size, left side with drug treatment", "setting": "[7]; Day 20", "value": 57}, {"measurement": "tumors on right side after vaccination on left side", "setting": "[7]; Day 25", "value": 9.1}, {"measurement": "tumor size, left side with drug treatment", "setting": "[7]; Day 25", "value": 81}, {"measurement": "tumors on right side after vaccination on left side", "setting": "[7]; Day 30", "value": 21.3}, {"measurement": "tumor size, left side with drug treatment", "setting": "[7]; Day 30", "value": 177}, {"measurement": "4T1 breast carcinoma tumor in Athymic mice", "setting": "[8]; Day 0", "value": 0}, {"measurement": "4T1 breast carcinoma tumor in Athymic mice", "setting": "[8]; Day 5", "value": 21.7}, {"measurement": "4T1 breast carcinoma tumor in Athymic mice", "setting": "[8]; Day 10", "value": 41.3}, {"measurement": "4T1 breast carcinoma tumor in Athymic mice", "setting": "[8]; Day 15", "value": 163.3}, {"measurement": "4T1 breast carcinoma tumor in Athymic mice", "setting": "[8]; Day 20", "value": 385.4}, {"measurement": "4T1 breast carcinoma tumor in Athymic mice", "setting": "[8]; Day 25", "value": 793.2}, {"measurement": "tumors on right side after vaccination on left side", "setting": "[9]; Day 0", "value": 0}, {"measurement": "tumor size, left side with drug treatment", "setting": "[9]; Day 0", "value": 0}, {"measurement": "tumors on right side after vaccination on left side", "setting": "[9]; Day 5", "value": 0}, {"measurement": "tumor size, left side with drug treatment", "setting": "[9]; Day 5", "value": 0}, {"measurement": "tumors on right side after vaccination on left side", "setting": "[9]; Day 10", "value": 0}, {"measurement": "tumor size, left side with drug treatment", "setting": "[9]; Day 10", "value": 2.3}, {"measurement": "tumors on right side after vaccination on left side", "setting": "[9]; Day 15", "value": 0}, {"measurement": "tumor size, left side with drug treatment", "setting": "[9]; Day 15", "value": 18.4}, {"measurement": "tumors on right side after vaccination on left side", "setting": "[9]; Day 20", "value": 3.2}, {"measurement": "tumor size, left side with drug treatment", "setting": "[9]; Day 20", "value": 63.5}, {"measurement": "tumors on right side after vaccination on left side", "setting": "[9]; Day 25", "value": 7.9}, {"measurement": "tumor size, left side with drug treatment", "setting": "[9]; Day 25", "value": 102.4}, {"measurement": "tumors on right side after vaccination on left side", "setting": "[9]; Day 30", "value": 16.4}, {"measurement": "tumor size, left side with drug treatment", "setting": "[9]; Day 30", "value": 173.6}, {"measurement": "IL-1β", "setting": "[10]", "value": 954}, {"measurement": "INFγ", "setting": "[11]", "value": 623}, {"measurement": "Gzm8 expression", "setting": "[12]", "value": 2.3}, {"measurement": "GzmA expression", "setting": "[12]", "value": 2.2}, {"measurement": "IL-1β expression", "setting": "[12]", "value": 2.2}, {"measurement": "INFγ expression", "setting": "[12]", "value": 2.1}, {"measurement": "PD-L1 expression", "setting": "[12]", "value": 0.5}, {"measurement": "Perforin expression", "setting": "[12]", "value": 2.5}, {"measurement": "MHC-1", "setting": "[13]; DMSO 0.6", "value": 51.7}, {"measurement": "MHC-II", "setting": "[13]; DMSO 0.7", "value": 43.6}, {"measurement": "CD4", "setting": "[13]; DMSO 1.0", "value": 13.2}, {"measurement": "CD8", "setting": "[13]; DMSO 2.0", "value": 13.5}, {"measurement": "lung metastases (surface tumor number)", "setting": "[14]", "value": 5}, {"measurement": "toxicity (killing normal HSCs)", "setting": "[15]", "value": "relatively low toxicity"}]}]}
